Data: the NIST ThermoML archive (doi:10.1016/j.jct.2004.12.014)
Numbers after ± are expanded uncertainties.

Columns and labels:
[1] = excess molar enthalpy (molar enthalpy of mixing); xn = mol fraction of the nth substance listed; details: 318.15 K, 101 kPa, Liquid
[2] = xn = mol fraction of the nth substance listed; details: 318.15 K, 101 kPa, Liquid

CCC(=O)OC [methyl propanoate] + CCCCCCCCCCC
Details	excess molar enthalpy [kcal/mol]	excess molar volume [m3/mol]
[1], x1 = 0.0844	0.118 ± 0.00225	–
[1], x1 = 0.1733	0.219 ± 0.00382	–
[1], x1 = 0.2574	0.3 ± 0.00502	–
[1], x1 = 0.327	0.355 ± 0.00598	–
[1], x1 = 0.3915	0.394 ± 0.00645	–
[1], x1 = 0.4431	0.416 ± 0.00693	–
[1], x1 = 0.4953	0.432 ± 0.00693	–
[1], x1 = 0.5414	0.436 ± 0.00717	–
[1], x1 = 0.5798	0.434 ± 0.00717	–
[1], x1 = 0.6125	0.428 ± 0.00693	–
[1], x1 = 0.6312	0.422 ± 0.00693	–
[1], x1 = 0.6661	0.406 ± 0.00669	–
[1], x1 = 0.7078	0.382 ± 0.00621	–
[1], x1 = 0.7509	0.348 ± 0.00574	–
[1], x1 = 0.7942	0.307 ± 0.00502	–
[1], x1 = 0.8346	0.263 ± 0.00454	–
[1], x1 = 0.8799	0.21 ± 0.00359	–
[1], x1 = 0.9235	0.148 ± 0.00263	–
[1], x1 = 0.9624	0.0795 ± 0.00174	–
[2], x1 = 0.0968	–	4.8e-07 ± 1.8e-08
[2], x1 = 0.1299	–	6.34e-07 ± 1.8e-08
[2], x1 = 0.2313	–	1.02e-06 ± 2e-08
[2], x1 = 0.3207	–	1.285e-06 ± 2.1e-08
[2], x1 = 0.4052	–	1.433e-06 ± 2.2e-08
[2], x1 = 0.4772	–	1.508e-06 ± 2.3e-08
[2], x1 = 0.5465	–	1.514e-06 ± 2.3e-08
[2], x1 = 0.6062	–	1.482e-06 ± 2.2e-08
[2], x1 = 0.6609	–	1.417e-06 ± 2.2e-08
[2], x1 = 0.7121	–	1.302e-06 ± 2.2e-08
[2], x1 = 0.7581	–	1.188e-06 ± 2.1e-08
[2], x1 = 0.8001	–	1.041e-06 ± 2e-08
[2], x1 = 0.8396	–	9.14e-07 ± 2e-08
[2], x1 = 0.876	–	7.62e-07 ± 1.9e-08
[2], x1 = 0.9105	–	6.09e-07 ± 1.8e-08
[2], x1 = 0.9416	–	4.25e-07 ± 1.7e-08
[2], x1 = 0.9727	–	2.27e-07 ± 1.7e-08

CCCCCCCCCCCCCCC [pentadecane] + CCC(=O)OC
Details	excess molar enthalpy [kcal/mol]	excess molar volume [m3/mol]
[1], x2 = 0.125	0.172 ± 0.00311	–
[1], x2 = 0.233	0.296 ± 0.00502	–
[1], x2 = 0.3463	0.398 ± 0.00645	–
[1], x2 = 0.435	0.457 ± 0.00741	–
[1], x2 = 0.5058	0.486 ± 0.00789	–
[1], x2 = 0.5584	0.495 ± 0.00813	–
[1], x2 = 0.6021	0.495 ± 0.00813	–
[1], x2 = 0.6368	0.487 ± 0.00789	–
[1], x2 = 0.6819	0.466 ± 0.00765	–
[1], x2 = 0.7197	0.439 ± 0.00717	–
[1], x2 = 0.7527	0.408 ± 0.00669	–
[1], x2 = 0.7913	0.367 ± 0.00598	–
[1], x2 = 0.8294	0.318 ± 0.00526	–
[1], x2 = 0.8668	0.272 ± 0.00454	–
[1], x2 = 0.9037	0.217 ± 0.00382	–
[1], x2 = 0.94	0.151 ± 0.00287	–
[1], x2 = 0.9713	0.0789 ± 0.00184	–
[2], x2 = 0.0815	–	3.78e-07 ± 1.7e-08
[2], x2 = 0.1606	–	7e-07 ± 1.9e-08
[2], x2 = 0.2792	–	1.134e-06 ± 2.1e-08
[2], x2 = 0.377	–	1.401e-06 ± 2.2e-08
[2], x2 = 0.4695	–	1.535e-06 ± 2.3e-08
[2], x2 = 0.5395	–	1.586e-06 ± 2.3e-08
[2], x2 = 0.6103	–	1.569e-06 ± 2.3e-08
[2], x2 = 0.6695	–	1.514e-06 ± 2.3e-08
[2], x2 = 0.7187	–	1.405e-06 ± 2.2e-08
[2], x2 = 0.7639	–	1.277e-06 ± 2.1e-08
[2], x2 = 0.8034	–	1.137e-06 ± 2.1e-08
[2], x2 = 0.8389	–	1.001e-06 ± 2e-08
[2], x2 = 0.8718	–	8.65e-07 ± 2e-08
[2], x2 = 0.9023	–	7.29e-07 ± 1.9e-08
[2], x2 = 0.9297	–	5.72e-07 ± 1.8e-08
[2], x2 = 0.9549	–	4.07e-07 ± 1.7e-08
[2], x2 = 0.9781	–	2.28e-07 ± 1.7e-08

CCCCCCCCCCCCCCC [pentadecane] + CCCCOC(=O)CC
Details	excess molar enthalpy [kcal/mol]	excess molar volume [m3/mol]
[1], x2 = 0.0761	0.0789 ± 0.00163	–
[1], x2 = 0.1691	0.151 ± 0.00263	–
[1], x2 = 0.2538	0.211 ± 0.00359	–
[1], x2 = 0.3371	0.253 ± 0.0043	–
[1], x2 = 0.4082	0.279 ± 0.00478	–
[1], x2 = 0.4663	0.291 ± 0.00478	–
[1], x2 = 0.5154	0.294 ± 0.00502	–
[1], x2 = 0.5563	0.292 ± 0.00502	–
[1], x2 = 0.5938	0.288 ± 0.00478	–
[1], x2 = 0.6011	0.287 ± 0.00478	–
[1], x2 = 0.6427	0.276 ± 0.00454	–
[1], x2 = 0.6861	0.262 ± 0.0043	–
[1], x2 = 0.7321	0.242 ± 0.00406	–
[1], x2 = 0.7784	0.215 ± 0.00359	–
[1], x2 = 0.8262	0.18 ± 0.00311	–
[1], x2 = 0.8732	0.142 ± 0.00263	–
[1], x2 = 0.9184	0.0978 ± 0.00194	–
[1], x2 = 0.9612	0.0508 ± 0.00124	–
[2], x2 = 0.0505	–	1.65e-07 ± 1.6e-08
[2], x2 = 0.0965	–	3.01e-07 ± 1.7e-08
[2], x2 = 0.197	–	5.5e-07 ± 1.8e-08
[2], x2 = 0.2885	–	7.14e-07 ± 1.9e-08
[2], x2 = 0.372	–	8.22e-07 ± 1.9e-08
[2], x2 = 0.4383	–	8.58e-07 ± 1.9e-08
[2], x2 = 0.5036	–	8.89e-07 ± 2e-08
[2], x2 = 0.5649	–	8.8e-07 ± 2e-08
[2], x2 = 0.6245	–	8.56e-07 ± 1.9e-08
[2], x2 = 0.6765	–	8.1e-07 ± 1.9e-08
[2], x2 = 0.7278	–	7.63e-07 ± 1.9e-08
[2], x2 = 0.7734	–	6.88e-07 ± 1.9e-08
[2], x2 = 0.817	–	5.89e-07 ± 1.8e-08
[2], x2 = 0.8567	–	4.91e-07 ± 1.8e-08
[2], x2 = 0.897	–	3.82e-07 ± 1.7e-08
[2], x2 = 0.9328	–	2.79e-07 ± 1.7e-08
[2], x2 = 0.9665	–	1.56e-07 ± 1.6e-08

CCCCCCCCCCCCCCC [pentadecane] + CCCOC(=O)CC
Details	excess molar enthalpy [kcal/mol]	excess molar volume [m3/mol]
[1], x2 = 0.0908	0.0969 ± 0.00191	–
[1], x2 = 0.2077	0.193 ± 0.00335	–
[1], x2 = 0.3159	0.265 ± 0.00454	–
[1], x2 = 0.4097	0.309 ± 0.00526	–
[1], x2 = 0.481	0.33 ± 0.0055	–
[1], x2 = 0.538	0.336 ± 0.0055	–
[1], x2 = 0.5826	0.333 ± 0.0055	–
[1], x2 = 0.6208	0.327 ± 0.0055	–
[1], x2 = 0.6333	0.322 ± 0.00526	–
[1], x2 = 0.6724	0.307 ± 0.00502	–
[1], x2 = 0.7191	0.284 ± 0.00478	–
[1], x2 = 0.7668	0.255 ± 0.0043	–
[1], x2 = 0.8087	0.224 ± 0.00382	–
[1], x2 = 0.8594	0.181 ± 0.00311	–
[1], x2 = 0.9086	0.128 ± 0.00239	–
[1], x2 = 0.96	0.0654 ± 0.00146	–
[2], x2 = 0.0571	–	1.92e-07 ± 1.6e-08
[2], x2 = 0.121	–	3.65e-07 ± 1.7e-08
[2], x2 = 0.2189	–	6.37e-07 ± 1.8e-08
[2], x2 = 0.3124	–	8.36e-07 ± 1.9e-08
[2], x2 = 0.3919	–	9.5e-07 ± 2e-08
[2], x2 = 0.4644	–	1.011e-06 ± 2e-08
[2], x2 = 0.5327	–	1.042e-06 ± 2e-08
[2], x2 = 0.5945	–	1.032e-06 ± 2e-08
[2], x2 = 0.6507	–	9.93e-07 ± 2e-08
[2], x2 = 0.7004	–	9.51e-07 ± 2e-08
[2], x2 = 0.7486	–	8.75e-07 ± 2e-08
[2], x2 = 0.7919	–	7.84e-07 ± 1.9e-08
[2], x2 = 0.8316	–	6.85e-07 ± 1.9e-08
[2], x2 = 0.8692	–	5.77e-07 ± 1.8e-08
[2], x2 = 0.9037	–	4.49e-07 ± 1.8e-08
[2], x2 = 0.9384	–	3.2e-07 ± 1.7e-08
[2], x2 = 0.9689	–	1.72e-07 ± 1.6e-08

CCCCCCCCCCCCCCC [pentadecane] + CCOC(=O)CC
Details	excess molar enthalpy [kcal/mol]	excess molar volume [m3/mol]
[1], x2 = 0.1045	0.128 ± 0.00237	–
[1], x2 = 0.2122	0.227 ± 0.00382	–
[1], x2 = 0.3158	0.312 ± 0.00526	–
[1], x2 = 0.4055	0.364 ± 0.00598	–
[1], x2 = 0.4848	0.392 ± 0.00645	–
[1], x2 = 0.5368	0.399 ± 0.00645	–
[1], x2 = 0.5811	0.398 ± 0.00645	–
[1], x2 = 0.6068	0.393 ± 0.00645	–
[1], x2 = 0.6156	0.391 ± 0.00645	–
[1], x2 = 0.6409	0.382 ± 0.00621	–
[1], x2 = 0.6796	0.366 ± 0.00598	–
[1], x2 = 0.7199	0.341 ± 0.00574	–
[1], x2 = 0.761	0.313 ± 0.00526	–
[1], x2 = 0.8036	0.273 ± 0.00454	–
[1], x2 = 0.846	0.229 ± 0.00406	–
[1], x2 = 0.8889	0.181 ± 0.00311	–
[1], x2 = 0.9311	0.124 ± 0.00237	–
[1], x2 = 0.9692	0.0613 ± 0.00148	–
[2], x2 = 0.0586	–	2.35e-07 ± 1.7e-08
[2], x2 = 0.1287	–	4.67e-07 ± 1.8e-08
[2], x2 = 0.2483	–	8.47e-07 ± 1.9e-08
[2], x2 = 0.3372	–	1.053e-06 ± 2e-08
[2], x2 = 0.4269	–	1.184e-06 ± 2.1e-08
[2], x2 = 0.502	–	1.246e-06 ± 2.1e-08
[2], x2 = 0.5673	–	1.252e-06 ± 2.1e-08
[2], x2 = 0.6288	–	1.223e-06 ± 2.1e-08
[2], x2 = 0.6845	–	1.156e-06 ± 2.1e-08
[2], x2 = 0.7304	–	1.087e-06 ± 2.1e-08
[2], x2 = 0.7744	–	9.92e-07 ± 2e-08
[2], x2 = 0.8148	–	8.88e-07 ± 2e-08
[2], x2 = 0.8537	–	7.69e-07 ± 1.9e-08
[2], x2 = 0.8864	–	6.38e-07 ± 1.8e-08
[2], x2 = 0.919	–	5.21e-07 ± 1.8e-08
[2], x2 = 0.9481	–	3.55e-07 ± 1.7e-08
[2], x2 = 0.9742	–	1.89e-07 ± 1.6e-08
